Results published in the NIST ThermoML archive (doi:10.1021/je100300s).

Assay: xn = mol fraction of the nth substance listed
Conditions: 101 kPa, Liquid

CC(O)CN (centres undefined) [1-amino-2-propanol] + O
Conditions | mass density [kg/m3] | viscosity [mPa·s]
298.15 K, x1 = 0.05 | 999.9 | 2.11
298.15 K, x1 = 0.07 | 1000.35 | 2.696
298.15 K, x1 = 0.0986 | 1002.43 | 3.902
298.15 K, x1 = 0.1993 | 1004.57 | 9.7
298.15 K, x1 = 0.3003 | 999.91 | 15.54
298.15 K, x1 = 0.3955 | 992.94 | 22.19
298.15 K, x1 = 0.4929 | 985.82 | 26.76
298.15 K, x1 = 0.5995 | 978.02 | 29.01
298.15 K, x1 = 0.7002 | 971.66 | 29.99
298.15 K, x1 = 0.8006 | 965.96 | 30.4
298.15 K, x1 = 0.8992 | 961.08 | 28.55
298.15 K, x1 = 1 | 956.51 | 26.68
303.15 K, x1 = 0.05 | 997.07 | 1.856
303.15 K, x1 = 0.07 | 998.1 | 2.282
303.15 K, x1 = 0.0986 | 999.83 | 3.248
303.15 K, x1 = 0.1993 | 1001.03 | 7.671
303.15 K, x1 = 0.3003 | 996.08 | 12.04
303.15 K, x1 = 0.3955 | 989.08 | 16.82
303.15 K, x1 = 0.4929 | 981.92 | 19.5
303.15 K, x1 = 0.5995 | 974.2 | 21.38
303.15 K, x1 = 0.7002 | 967.74 | 22.78
303.15 K, x1 = 0.8006 | 962.01 | 22.97
303.15 K, x1 = 0.8992 | 957.12 | 22.19
303.15 K, x1 = 1 | 952.52 | 20.31
313.15 K, x1 = 0.05 | 992.68 | 1.431
313.15 K, x1 = 0.07 | 993.09 | 1.785
313.15 K, x1 = 0.0986 | 994.25 | 2.359
313.15 K, x1 = 0.1993 | 993.72 | 5.102
313.15 K, x1 = 0.3003 | 988.29 | 7.551
313.15 K, x1 = 0.3955 | 981.19 | 9.95
313.15 K, x1 = 0.4929 | 973.92 | 11.79
313.15 K, x1 = 0.5995 | 966.3 | 12.85
313.15 K, x1 = 0.7002 | 959.83 | 13.14
313.15 K, x1 = 0.8006 | 954.01 | 13.56
313.15 K, x1 = 0.8992 | 949.12 | 12.83
313.15 K, x1 = 1 | 944.42 | 12.51
323.15 K, x1 = 0.05 | 987.66 | 1.136
323.15 K, x1 = 0.07 | 987.41 | 1.393
323.15 K, x1 = 0.0986 | 988.2 | 1.561
323.15 K, x1 = 0.1993 | 986.18 | 3.582
323.15 K, x1 = 0.3003 | 980.32 | 5.59
323.15 K, x1 = 0.3955 | 973.13 | 6.649
323.15 K, x1 = 0.4929 | 965.84 | 7.64
323.15 K, x1 = 0.5995 | 958.38 | 7.994
323.15 K, x1 = 0.7002 | 951.77 | 8.473
323.15 K, x1 = 0.8006 | 945.87 | 8.748
323.15 K, x1 = 0.8992 | 940.96 | 8.041
323.15 K, x1 = 1 | 936.19 | 7.543
333.15 K, x1 = 0.05 | 982.03 | 0.929
333.15 K, x1 = 0.07 | 981.49 | 1.118
333.15 K, x1 = 0.0986 | 981.57 | 1.222
333.15 K, x1 = 0.1993 | 978.5 | 2.627
333.15 K, x1 = 0.3003 | 972.15 | 3.944
333.15 K, x1 = 0.3955 | 964.88 | 4.988
333.15 K, x1 = 0.4929 | 957.68 | 5.701
333.15 K, x1 = 0.5995 | 950.15 | 6.163
333.15 K, x1 = 0.7002 | 943.53 | 5.753
333.15 K, x1 = 0.8006 | 937.62 | 6.023
333.15 K, x1 = 0.8992 | 932.66 | 5.483
333.15 K, x1 = 1 | 927.84 | 5.22
343.15 K, x1 = 0.05 | 975.62 | 0.775
343.15 K, x1 = 0.07 | 974.99 | 0.922
343.15 K, x1 = 0.0986 | 973.44 | 0.993
343.15 K, x1 = 0.1993 | 970.55 | 2.088
343.15 K, x1 = 0.3003 | 963.77 | 2.904
343.15 K, x1 = 0.3955 | 956.45 | 3.619
343.15 K, x1 = 0.4929 | 949.25 | 4.075
343.15 K, x1 = 0.5995 | 941.71 | 4.371
343.15 K, x1 = 0.7002 | 935.09 | 4.565
343.15 K, x1 = 0.8006 | 929.19 | 4.467
343.15 K, x1 = 0.8992 | 924.2 | 3.927
343.15 K, x1 = 1 | 919.37 | 3.77
